Among the data in ChEMBL document CHEMBL1909046, “DrugMatrix in vitro pharmacology data” are IC50 and Ki values, retold here.

For orientation: IC50 means the concentration needed to halve the response being measured. As a reminder, the Ki is a measure of affinity in units of concentration, obtained from inhibition or displacement.

The target of one assay is T1, Muscarinic acetylcholine receptor M4 (Homo sapiens, UniProt P08173). Also: in other assays of this panel Not Active means under 50% inhibition at 10 µM.
T1 sequence (P08173 whole entry): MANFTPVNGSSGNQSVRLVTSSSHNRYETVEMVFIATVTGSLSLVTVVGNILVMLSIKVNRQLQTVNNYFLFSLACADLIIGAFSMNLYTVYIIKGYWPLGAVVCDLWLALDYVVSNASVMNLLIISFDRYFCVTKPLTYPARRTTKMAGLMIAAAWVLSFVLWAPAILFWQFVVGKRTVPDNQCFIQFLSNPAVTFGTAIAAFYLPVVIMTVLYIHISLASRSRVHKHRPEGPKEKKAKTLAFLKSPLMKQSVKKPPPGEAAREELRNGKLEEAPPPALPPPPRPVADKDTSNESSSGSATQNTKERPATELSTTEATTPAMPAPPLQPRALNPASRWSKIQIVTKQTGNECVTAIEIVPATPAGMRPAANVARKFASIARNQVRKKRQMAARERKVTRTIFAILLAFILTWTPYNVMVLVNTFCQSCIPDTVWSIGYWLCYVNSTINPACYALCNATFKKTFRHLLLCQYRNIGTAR
Test: not given
In kind it is cell membranes, CHO-K1, Membrane. The conditions noted are these: cho-k1.
Regarding `Cc1cc2c(OCC(CNC(C)(C)C)OC(=O)c3ccccc3)cccc2[nH]1` (configuration not stated) [BOPINDOLOL], the IC50 result was “Not Active”.

`Brc1c(NC2=NCCN2)ccc2nccnc12` [BRIMONIDINE]: the 50% inhibitory concentration (IC50) entry was “Not Active”.

With `CN(C)[C@@H]1C(O)=C(C(N)=O)C(=O)[C@@]2(O)C(O)=C3C(=O)c4c(O)ccc(Cl)c4[C@@](C)(O)[C@H]3C[C@@H]12` [CHLORTETRACYCLINE], the half-maximal inhibitory concentration (IC50) result was “Not Active”.

For the molecule `CN/C(=N\CCSCc1nc[nH]c1C)NC#N` [CIMETIDINE], the IC50 result is given as “Not Active”.

As to `COc1cc(N)c(Cl)cc1C(=O)NC1CCN(CCCOc2ccc(F)cc2)CC1OC` (configuration not stated) [CISAPRIDE], the IC50 result was “Not Active”.

Another assay deals with Prostaglandin G/H synthase 1 (Homo sapiens, UniProt P23219). Briefly: biochemical. The assay is classed as tissue-based, Platelet. As to conditions: platelet.
Chain of Prostaglandin G/H synthase 1 (P23219 whole entry): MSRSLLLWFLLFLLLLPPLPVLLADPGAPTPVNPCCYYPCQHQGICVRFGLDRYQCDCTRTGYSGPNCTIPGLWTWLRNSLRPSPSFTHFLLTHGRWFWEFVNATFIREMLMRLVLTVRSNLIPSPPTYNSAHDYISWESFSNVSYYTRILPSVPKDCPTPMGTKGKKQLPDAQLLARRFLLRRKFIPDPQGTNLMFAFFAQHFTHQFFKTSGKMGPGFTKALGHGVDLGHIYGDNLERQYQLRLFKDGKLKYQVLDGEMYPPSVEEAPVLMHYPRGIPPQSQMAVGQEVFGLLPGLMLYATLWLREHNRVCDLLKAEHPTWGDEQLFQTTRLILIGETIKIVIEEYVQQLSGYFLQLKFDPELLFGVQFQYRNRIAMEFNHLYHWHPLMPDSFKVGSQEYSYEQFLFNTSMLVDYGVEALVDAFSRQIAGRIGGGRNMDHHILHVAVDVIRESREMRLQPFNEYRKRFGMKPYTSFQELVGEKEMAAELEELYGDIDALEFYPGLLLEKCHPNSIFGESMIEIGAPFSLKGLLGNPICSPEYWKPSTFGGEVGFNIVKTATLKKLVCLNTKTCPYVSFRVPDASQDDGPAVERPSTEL
Consider `Cc1cc2c(OCC(CNC(C)(C)C)OC(=O)c3ccccc3)cccc2[nH]1` (configuration not stated) [BOPINDOLOL], for which the IC50 entry is reported as “Not Active”.

Take `Brc1c(NC2=NCCN2)ccc2nccnc12` [BRIMONIDINE]: the IC50 result is “Not Active”.

`CN(C)[C@@H]1C(O)=C(C(N)=O)C(=O)[C@@]2(O)C(O)=C3C(=O)c4c(O)ccc(Cl)c4[C@@](C)(O)[C@H]3C[C@@H]12` [CHLORTETRACYCLINE]: the IC50 entry is reported as “Not Active”.

`CN/C(=N\CCSCc1nc[nH]c1C)NC#N` [CIMETIDINE]: the IC50 result was “Not Active”.

In the case of `COc1cc(N)c(Cl)cc1C(=O)NC1CCN(CCCOc2ccc(F)cc2)CC1OC` (configuration not stated) [CISAPRIDE], the IC50 entry is “Not Active”.

A further assay deals with Glycine receptor (Rattus norvegicus, UniProt P22771+P24524+P07727+P20781).
Test: not given
In kind it is cell membranes, Wistar, Spinal cord, Membrane.
Details: not given
For `Cc1cc2c(OCC(CNC(C)(C)C)OC(=O)c3ccccc3)cccc2[nH]1` (configuration not stated) [BOPINDOLOL], the IC50 result is reported as “Not Active”.

On to `Brc1c(NC2=NCCN2)ccc2nccnc12` [BRIMONIDINE], for which the IC50 result was “Not Active”.

Take `CN(C)[C@@H]1C(O)=C(C(N)=O)C(=O)[C@@]2(O)C(O)=C3C(=O)c4c(O)ccc(Cl)c4[C@@](C)(O)[C@H]3C[C@@H]12` [CHLORTETRACYCLINE]: the IC50 result is on record as “Not Active”.

In the case of `CN/C(=N\CCSCc1nc[nH]c1C)NC#N` [CIMETIDINE], the 50% inhibitory concentration (IC50) result is on record as “Not Active”.

In the case of `COc1cc(N)c(Cl)cc1C(=O)NC1CCN(CCCOc2ccc(F)cc2)CC1OC` (configuration not stated) [CISAPRIDE], the IC50 entry is reported as “Not Active”.

For another assay, the target named is Matrix metalloproteinase-9 (Homo sapiens, UniProt P14780). Briefly: biochemical. In kind it is cell-based.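 Also: inhibition of isolated MMP-9 enzyme activity toward a synthetic peptide substrate, from the DrugMatrix protease screening panel; in other assays of this panel Not Active means under 50% inhibition at 10 µM.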
Chain of Matrix metalloproteinase-9 (P14780 whole entry): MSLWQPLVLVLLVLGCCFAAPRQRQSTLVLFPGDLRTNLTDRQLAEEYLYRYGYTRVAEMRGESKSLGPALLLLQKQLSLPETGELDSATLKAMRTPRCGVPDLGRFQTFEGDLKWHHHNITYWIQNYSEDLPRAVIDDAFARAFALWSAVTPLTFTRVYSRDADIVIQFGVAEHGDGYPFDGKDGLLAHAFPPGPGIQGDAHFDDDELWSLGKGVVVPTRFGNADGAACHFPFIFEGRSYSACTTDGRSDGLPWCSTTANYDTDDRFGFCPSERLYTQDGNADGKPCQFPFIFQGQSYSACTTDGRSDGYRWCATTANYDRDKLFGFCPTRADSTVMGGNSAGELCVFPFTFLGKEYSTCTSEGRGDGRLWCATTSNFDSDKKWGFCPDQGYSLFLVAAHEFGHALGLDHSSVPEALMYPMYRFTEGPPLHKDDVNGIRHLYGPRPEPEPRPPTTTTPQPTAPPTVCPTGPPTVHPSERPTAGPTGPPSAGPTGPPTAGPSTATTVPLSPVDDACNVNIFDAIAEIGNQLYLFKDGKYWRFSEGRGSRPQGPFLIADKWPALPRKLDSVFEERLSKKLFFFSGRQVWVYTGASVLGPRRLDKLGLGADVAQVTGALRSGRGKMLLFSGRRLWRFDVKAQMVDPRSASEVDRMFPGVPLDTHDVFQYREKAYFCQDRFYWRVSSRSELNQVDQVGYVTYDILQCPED
Details: not given
Take `Cc1cc2c(OCC(CNC(C)(C)C)OC(=O)c3ccccc3)cccc2[nH]1` (configuration not stated) [BOPINDOLOL]: the IC50 result is “Not Active”.

`Brc1c(NC2=NCCN2)ccc2nccnc12` [BRIMONIDINE]: the IC50 entry is “Not Active”.

As for `CN(C)[C@@H]1C(O)=C(C(N)=O)C(=O)[C@@]2(O)C(O)=C3C(=O)c4c(O)ccc(Cl)c4[C@@](C)(O)[C@H]3C[C@@H]12` [CHLORTETRACYCLINE], the IC50 result is on record as “Not Active”.

Turning to `CN/C(=N\CCSCc1nc[nH]c1C)NC#N` [CIMETIDINE], the concentration for half-maximal inhibition (IC50) entry is “Not Active”.

Turning to `COc1cc(N)c(Cl)cc1C(=O)NC1CCN(CCCOc2ccc(F)cc2)CC1OC` (configuration not stated) [CISAPRIDE], the IC50 entry was “Not Active”.

The target of another assay is T2, Alpha-1D adrenergic receptor (Homo sapiens, UniProt P25100). Also: in other assays of this panel Not Active means under 50% inhibition at 10 µM.
T2 sequence (P25100 whole entry): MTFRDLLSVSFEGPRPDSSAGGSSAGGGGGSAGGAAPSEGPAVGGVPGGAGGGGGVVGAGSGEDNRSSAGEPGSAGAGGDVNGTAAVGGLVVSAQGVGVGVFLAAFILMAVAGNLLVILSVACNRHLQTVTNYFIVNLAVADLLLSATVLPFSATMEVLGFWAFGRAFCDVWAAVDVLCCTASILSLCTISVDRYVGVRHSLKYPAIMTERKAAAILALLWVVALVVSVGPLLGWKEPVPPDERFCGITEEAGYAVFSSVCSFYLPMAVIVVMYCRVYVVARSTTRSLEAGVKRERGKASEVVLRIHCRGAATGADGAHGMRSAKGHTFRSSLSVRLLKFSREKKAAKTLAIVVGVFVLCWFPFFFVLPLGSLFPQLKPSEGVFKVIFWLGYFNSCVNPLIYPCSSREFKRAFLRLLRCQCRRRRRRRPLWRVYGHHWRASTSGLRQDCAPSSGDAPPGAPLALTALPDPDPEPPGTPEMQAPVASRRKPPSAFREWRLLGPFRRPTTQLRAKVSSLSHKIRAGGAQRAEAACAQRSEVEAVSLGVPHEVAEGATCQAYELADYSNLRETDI
Test: not given
In kind it is cell membranes, HEK293, Membrane. As to conditions: hek293.
On to `Cc1cc2c(OCC(CNC(C)(C)C)OC(=O)c3ccccc3)cccc2[nH]1` (configuration not stated) [BOPINDOLOL], for which the IC50 result was “Not Active”.

As to `CN(C)[C@@H]1C(O)=C(C(N)=O)C(=O)[C@@]2(O)C(O)=C3C(=O)c4c(O)ccc(Cl)c4[C@@](C)(O)[C@H]3C[C@@H]12` [CHLORTETRACYCLINE], the IC50 result is “Not Active”.

For the molecule `CN/C(=N\CCSCc1nc[nH]c1C)NC#N` [CIMETIDINE], the IC50 result was “Not Active”.

Still in this assay, the particulars now being: read-out: IC50.
In the case of `Brc1c(NC2=NCCN2)ccc2nccnc12` [BRIMONIDINE], the IC50 is 1720 nM.

As for `COc1cc(N)c(Cl)cc1C(=O)NC1CCN(CCCOc2ccc(F)cc2)CC1OC` (configuration not stated) [CISAPRIDE], the half-maximal inhibitory concentration (IC50) came to 189 nM.

Staying with this assay, now noted: read-out: Ki.
Regarding `Brc1c(NC2=NCCN2)ccc2nccnc12` [BRIMONIDINE], the Ki amounted to 846 nM.

Turning to `COc1cc(N)c(Cl)cc1C(=O)NC1CCN(CCCOc2ccc(F)cc2)CC1OC` (configuration not stated) [CISAPRIDE], the Ki is 93 nM.

Tested on in the next assay: not listed separately
Briefly: DRUGMATRIX: GABAA, Muscimol, Central radioligand binding (ligand: [3H] Muscimol). The assay is classed as cell membranes, Rattus norvegicus, Wistar, Brain, Membrane. The conditions noted are these: Not Active = under 50% inhibition at 10 µM.
Take `Cc1cc2c(OCC(CNC(C)(C)C)OC(=O)c3ccccc3)cccc2[nH]1` (configuration not stated) [BOPINDOLOL]: the half-inhibitory concentration (IC50) entry is recorded as “Not Active” and the Ki entry is “Not Active”.

Turning to `Brc1c(NC2=NCCN2)ccc2nccnc12` [BRIMONIDINE], the IC50 result is on record as “Not Active” and the Ki result was “Not Active”.

In the case of `CN(C)[C@@H]1C(O)=C(C(N)=O)C(=O)[C@@]2(O)C(O)=C3C(=O)c4c(O)ccc(Cl)c4[C@@](C)(O)[C@H]3C[C@@H]12` [CHLORTETRACYCLINE], the IC50 entry is on record as “Not Active” and the Ki entry is listed as “Not Active”.

Consider `CN/C(=N\CCSCc1nc[nH]c1C)NC#N` [CIMETIDINE], for which the IC50 entry was “Not Active” and the Ki entry is “Not Active”.

Consider `COc1cc(N)c(Cl)cc1C(=O)NC1CCN(CCCOc2ccc(F)cc2)CC1OC` (configuration not stated) [CISAPRIDE], for which the IC50 entry is given as “Not Active” and the Ki result was “Not Active”.
